Like-named read-outs stand apart in the source and are kept apart here.
Key:
nNOS protein expression = experiment: Western blot of nNOS protein in CGNs after MPP+; type: cell-based, rat; conditions: 20 μM, 35 μM MPP+
Description: (§1) Briefly, neurons were harvested in a cell lysis buffer. Protein was separated on SDS-polyacrylamide gel and transferred onto polyvinyldifluoride membranes. After membrane blocking, proteins were detected using primary antibodies. After incubation at 4° C. overnight, signals were obtained after binding to chemiluminescent secondary antibodies. Blots were developed using an ECL plus kit (Amersham Bioscience, Aylesbury, UK) and exposed to Kodak autoradiographic films. All data were from three independent experiments and were expressed as the ratio to optical density (OD) values of the corresponding controls for statistical analyses.

iNOS protein expression = experiment: Western blot of iNOS protein in CGNs after MPP+; type: cell-based, rat; conditions: 20 μM, 35 μM MPP+
Description: as §1

ERK and Akt pathways = experiment: Western blot of phospho-Akt and phospho-ERK after MPP+; type: cell-based; conditions: data not shown
[1] = phase I, 145 mg/m^2; cited from earlier work
th gene = experiment: MPTP zebrafish, th gene expression by real-time PCR; type: in vivo; conditions: 200 μM MPTP, 48 hours
Description: Wild-type zebrafish (AB strain) and Tg (fli-1:EGFP) transgenic zebrafish were maintained as described in the Zebrafish Handbook (Westerfield, 1993). Zebrafish embryos were generated by natural pair-wise mating (3-12 months old) and raised at 28.5° C. in embryo medium (13.7 mM NaCl, 540 μM KCl, pH 7.4, 25 μM Na2HPO4, 44 μM KH2PO4, 300 μM CaCl2, 100 μM MgSO4, 420 μM NaHCO3, pH 7.4). […] An equal concentration of DMSO in embryo medium was used as vehicle control in each experiment.
Healthy zebrafish embryos were picked out and […] manually at 1 day post fertilization (dpf) and distributed into a 12-well plate with 20 fish embryos or a 6-well microplate with 30 fish embryos in each well. […] Thus subsequent studies were done with 200 μM MPTP for whole-mount immunostaining and gene expression experiments.
Total RNA was extracted from 30 zebrafish larvae of each treatment group using the RNeasy Mini Kit (Qiagen, USA) according to the manufacturer's instructions. […] The expression of the mRNA was normalized to the amount of bactin1 using the relative quantification method described by the manufacturer. […]

[2] = molecular target: T1, recombinant human endothelial NOS (eNOS) (Homo sapiens, UniProt P29474); experiment: In vitro NOS activity assay, eNOS; type: biochemical; conditions: PTK787/ZK222584 up to 1 mM
T1 construct: purchased Alexis Biochemicals (Lausen, Switzerland)
Description: In the in vitro NOS activity assay (Li et al., 2007), purified recombinant human nNOS, endothelial NOS (eNOS), and inducible NOS (iNOS) were bought from Alexis Biochemicals (Lausen, Switzerland). NOS activity was determined by monitoring the conversion of L-[3H]arginine to [3H]citrulline following the instructions provided in the kit (Calbiochem, USA). The reaction mixture contained a final volume of 40 μl with 25 mM Tris-Cl at pH 7.4, 3 μM tetrahydrobiopterin, 1 μM FAD, 1 μM FMN, 1 mM NADPH, 0.6 mM CaCl2, 0.1 μM calmodulin, 2.5 μg of pure NOS enzyme, 5 μl L-[3H]arginine (Perkin Elmer, Waltham, Mass., USA), and different concentrations of the tested reagents. The reaction mixture was incubated at 22° C. for 45 min. The reaction was quenched by adding 400 μl of stopping buffer (50 mM HEPES, pH 5.5, and 5 mM EDTA) for nNOS and eNOS reactions or by heating reactive tubes for iNOS. Unreacted L-[3H]arginine was then trapped by 100 μl of equilibrated resin provided in a spin cup followed by centrifugation for 30 s at 13,200 rpm. The filtrate was quantified by liquid scintillation counting.

recombinant human MAO-B = molecular target: T2, recombinant human MAO-B (Homo sapiens, UniProt P27338); experiment: MAO-Glo MAO-B inhibition assay; type: biochemical
T2 construct: purchased Sigma-Aldrich
Description: The MAO-B inhibition activity of SU4312 was determined by MAO-Glo™ Assay kit (Promega Inc., USA). The recombinant human MAO-B enzymes and selegiline used in this study were purchased from Sigma-Aldrich. Concentrations of SU4312 tested were 0.01, 0.03, 0.1, 0.3, 1.0 and 10 μM. Selegiline, a known MAO-B inhibitor, was used as positive control at 0.001, 0.01, 0.1, 1, 10 μM. Briefly, SU4312 and selegiline were incubated in 96-well opaque white plates with MAO substrate and rhMAO-B (0.25 mg protein/mL final concentration). Reactions were started by addition of rhMAO-B. Samples were incubated for 1 hour at room temperature. Reactions were terminated by addition of luciferin detection reagent, and samples were incubated an additional 20 minutes to allow development of luciferase- and esterase-dependent luminescence. Relative luminescence was determined with a plate luminometer and was corrected for background using no-MAO-B controls. Results are presented as percent of vehicle (total MAO-B activity).

VEGFR-2 = conditions: cited from earlier work
PDGFR = conditions: cited from earlier work

T2 sequence (P27338 whole entry): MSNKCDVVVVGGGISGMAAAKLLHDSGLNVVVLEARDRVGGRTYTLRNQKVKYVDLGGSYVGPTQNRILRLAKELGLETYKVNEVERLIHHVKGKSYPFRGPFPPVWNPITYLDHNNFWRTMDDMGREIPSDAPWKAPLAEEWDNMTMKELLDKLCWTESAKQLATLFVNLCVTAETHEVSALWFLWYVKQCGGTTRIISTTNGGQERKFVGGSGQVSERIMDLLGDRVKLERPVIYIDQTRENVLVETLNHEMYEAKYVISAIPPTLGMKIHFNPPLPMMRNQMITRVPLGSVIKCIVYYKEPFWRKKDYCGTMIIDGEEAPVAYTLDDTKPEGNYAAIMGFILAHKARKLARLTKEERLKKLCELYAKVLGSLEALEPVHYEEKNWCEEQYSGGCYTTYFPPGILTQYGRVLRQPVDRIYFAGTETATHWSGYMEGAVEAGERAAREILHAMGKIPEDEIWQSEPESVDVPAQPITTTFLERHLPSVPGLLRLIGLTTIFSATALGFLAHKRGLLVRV

Structure (SMILES)	MPP+-increased expression of nNOS protein (nNOS protein expression)	MPP+-elevated expression of iNOS protein (iNOS protein expression)	activities of phospho-Akt and phospho-ERK (ERK and Akt pathways)	tolerability in patients with advanced malignancies [1]	th gene expression down-regulated by MPTP (th gene)	inhibition of recombinant human eNOS [2]	MAO-B activity in vitro (recombinant human MAO-B; figure legends)	IC50 (recombinant human MAO-B; rhMAO-B, 1 hour at room temperature) [nM]	IC50 (VEGFR-2) [nM]	IC50 (VEGFR-2; listed as PTK787) [nM]	IC50 (PDGFR) [nM]
Cc1cc(C)c(/C=C2\C(=O)Nc3ccccc32)[nH]1 [SU5416, (3Z)-3-[(3,5-dimethyl-1H-pyrrol-2-yl)methylidene]-1,3-dihydro-2H-indol-2-one]	reversed the increased expression of nNOS by MPP^+	could not affect the elevated expression of iNOS by MPP^+	could neither inhibit the activation of pro-apoptotic ERK pathway, nor reverse the decrease of pro-survival Akt pathway	well tolerated							
CN(C)c1ccc(C=C2C(=O)Nc3ccccc32)cc1 [SU4312, 3-[4-(dimethylamino)benzylidenyl]indolin-2-one]					significantly alleviated the loss of DA neurons and decrease of th gene expression in a concentration-dependent manner	no activity against eNOS	inhibited monoamine oxidase-B (MAO-B) activity in a concentration dependent manner	~200			
Clc1ccc(Nc2nnc(Cc3ccncc3)c3ccccc23)cc1 [PTK787/ZK222584]						did not inhibit any of the isoforms even at 1 mM			[…]	[…]	[…]

Reference: patent US9486440B2, “Uses of indole-ketones or indolidones as neuro-protective drugs” (UNIVERSITY OF MACAU, priority 2011, dated 2016)
